Reference: patent US20140242178A1, “TASTE-MASKED FORMULATIONS OF RALTEGRAVIR” (priority 2011, published 2014)

Experiments:
[1] = cited from earlier work
[2] = IMPAACT P1066: safety in HIV-1 infected pediatric patients; format: in vivo, human
From the text: Raltegravir has been studied in 126 antiretroviral treatment-experienced HIV-1 infected pediatric patients 2 through 18 years of age, in combination with other antiretroviral agents in IMPAACT P1066. Of the 126 patients, 96 received only the final recommended dose through at least 24 weeks.

[3] = laboratory abnormality, pediatric patients

SMILES | solubility in acetonitrile ([1]; acetonitrile) | solubility in ethanol ([1]; ethanol) | solubility in isopropanol ([1]; isopropanol) | solubility in methanol ([1]; methanol) | solubility in water ([1]; water) | ALT increased, Grade 3 [2, 3] | AST increased, Grade 3 [2, 3] | AST increased, Grade 4 [2, 3] | GGT increased, Grade 3 [2, 3] | bilirubin increased, Grade 3 [2, 3] | creatinine increased, Grade 3 [2, 3] | glucose abnormal, Grade 3 [2, 3] | glucose decreased, Grade 3 [2, 3] | magnesium decreased, Grade 3 [2, 3] | neutrophil count decreased, Grade 4 [2, 3] | neutrophil count decreased, Grade 3 ([2]; laboratory abnormality, pediatric patients 2 through 18 years) | Grade 3 or higher adverse reactions (psychomotor hyperactivity, abnormal behavior, insomnia) ([2]; pediatric patients) | frequency, type and severity of drug related adverse reactions ([2]; pediatric patients) | serious Grade 2 possibly drug related allergic rash ([2]; pediatric patients)
Cc1nnc(C(=O)NC(C)(C)c2nc(C(=O)NCc3ccc(F)cc3)c([O-])c(=O)n2C)o1.[K+] [Raltegravir potassium, N-[(4-Fluorophenyl)methyl]-1,6-dihydro-5-hydroxy-1-methyl-2-[1-methyl-1-[[(5-methyl-1,3,4-oxadiazol-2-yl)carbonyl]amino]ethyl]-6-oxo-4-pyrimidinecarboxamide monopotassium salt] | very slightly soluble | very slightly soluble | insoluble | slightly soluble | soluble |  |  |  |  |  |  |  |  |  |  |  |  |  | 
Cc1nnc(C(=O)NC(C)(C)c2nc(C(=O)NCc3ccc(F)cc3)c(O)c(=O)n2C)o1 [Raltegravir] |  |  |  |  |  | 1.1% | 1.1% | 1.1% | 1.1% | 1.1% | 1.1% | 1.1% | 1.1% | 1.1% | 1.1% | 7.4% | one patient | comparable to those observed in adults | one
